Counter-ions that a name gives are not always drawn.
Columns and labels:
[1] = tested on: hind leg of cats anaesthetized with chloralose; conditions: intraarterial, about 1-2 mg/kg
[2] = intravenous toxicity (LD50, survival time) of mecamylamine preparations in mice; assay type: in vivo, male albino mice of the NMRI strain; conditions: mouse, in vivo, 1% preparations, fiducial limits at P = 0.05
Text: (§1) Mecamylamine (3-methylaminoisocamphane hydrochloride) is a ganglion-blocking secondary amine, and as a base, it is an oily liquid which is soluble in lipids. Its toxicity (LD50) after intravenous administration has been estimated in male albino mice of the NMRI strain in accordance with the method of the Nordic Pharmacopoeia. The following preparations were used:
(§2) Mecamylamine hydrochloride, 1% dissolved in saline
(§3) Mecamylamine base, dissolved in soybean oil and emulsified in the conventional way. Final concentration 1%.
(§4) Mecamylamine base, directly emulsified in 5.5% glucose solution with the aid of Pluronic F-68 (a registered trade mark for a nonionic emulsifier consisting of a block polymer of ethylene oxide and propylene oxide, from Wyandotte Chemical Corporation, described on page 392 of the Extra Pharmacopoeia, Martindale, 26th Edition) and an ultrasonic apparatus (20.000 Hz). Final concentration 1%.
(§5) The injections were given in the dorsal tail vein at a speed of 0.1 ml per 5 seconds.

[3] = tested on: male albino mice of the NMRI strain; experiment: as above; assay type: in vivo; conditions: ± S.E.
Text: as §1, §2, §3, §4, §5

[4] = pH value of phenyramidol preparations; assay type: physicochemical; conditions: aqueous solution
[5] = tested on: chloralose-anaesthetized cat; experiment: effect on blood pressure in chloralose-anaesthetized cat; assay type: in vivo; conditions: intravenous
Procedure: The effects of the emulsion on the blood pressure when given intravenously in a dose of 5-10 mg/kg was registered on a chloralose-anaesthetized cat.

mouse = experiment: sleeping time in mouse (loss of righting reflex); assay type: in vivo; conditions: single dose
Text: The sleeping time after a single dose injection of the emulsion was shorter than the sleeping time after injection of an aqueous solution of sodium hexobarbital:
In accordance with common practice, the sleeping time has been set as the duration of the loss of the righting reflex.

## CC1CC(OC(=O)C(O)c2ccccc2)CC(C)(C)C1 (stereo not drawn) [Cyclandelate, 3,5,5-trimethylcyclohexyl mandelate]
[1]
  onset of vasodilatation: within a few seconds
[1]; especially in noradrenaline induced vasoconstriction
  vasodilatation: marked vasodilatation

## CNC1(C)C2CCC(C2)C1(C)C (stereo not drawn) [Mecamylamine HCl, 3-methylaminoisocamphane hydrochloride]
[2]
  LD50: 16.3 mg/kg
[3]
  Survival time (time from the injections to death): 55 ± 5.1 s

## OC(CNc1ccccn1)c1ccccc1 (stereo not drawn) [phenyramidol hydrochloride]
[4]
  pH value compared with the emulsion: lower pH value

## CN1C(=O)NC(=O)C(C)(C2=CCCCC2)C1=O (stereo not drawn) [sodium hexobarbital]
[5]
  duration of blood pressure depression, emulsion and sodium hexobarbital solution: about the same duration
[5]; 5-10 mg/kg
  depression of blood pressure: about 6 mm Hg
mouse; 72 mg/kg
  Sleeping time: 172 s
mouse; 86 mg/kg
  Sleeping time: 905 s
